# Test results as given in patent publication US20080076147A1, “BIOFILM SAMPLING DEVICE” (BOARD OF TRUSTEES OF SOUTHERN ILLINOIS UNIVERSITY, priority 2006, published 2008).
# Tests used:
# Experiment in all cases: Biocide kill of planktonic cells and biofilm on vascular catheter (serum flow model)
# Type in all cases: cell-based
# [1] = system: Stenotrophomonas maltophilia; details: 5 to 60 minutes
# From the text: (§1) A system as shown in FIG. 6 was used in this study. Serum and a biocide were placed in sealed bottles as the first fluid source 505 and the second fluid source 509, respectively. The fluid sources were connected to a pump 515 by conventional IV tubing. A second pump 531 was used to deliver the fluid mixture to the vascular catheter 3 positioned in the sampling apparatus 1.
# (§2) Initially, only the first fluid source, serum inoculated with Acinetobacter baumanii (10×10^9 CFU/ml), was used to contaminate the catheter with planktonic cells. The inoculated fluid continuously flowed through IV tubing directly through the catheter for […] to form a layer of planktonic cells on the catheter. Fluid flow was then stopped and the tubing was then reconfigured as shown in FIG. 6 so that the second fluid source could be introduced. In these test runs, the first fluid source was inoculated with the same concentration of bacteria, and the second fluid source was a biocide (16-16,000 ppm) selected from hydrogen peroxide (H2O2), sodium hypochlorite (SHC), peracetic acid (PAA) and gluteraldehyde (GLT). The fluid mixture continuously flowed through the catheter for 5, 10, 15, 30, 45 or 60 minutes before fluid flow was discontinued to determine bacterial resistance of the planktonic cells on the catheter. In all, six runs were completed for each of four different biocides. After each run, the test catheter was then cut aseptically into 1 cm segments. The segments were transferred to test tubes containing one ml saline and the adherent cells were dislodged by sonication in an aquasonic device, vortexed for about one minute, and then counted on Tropic soya Agar. The number of viable cells were determined for each catheter and were compared to the number of viable cells in control samples (i.e., biocide-free serum) to calculate the biocide concentration required to kill 50% of the bacteria in the biofilm at the same time interval. Instead of saline, other appropriate buffer solutions can be used. In addition to plating cells on agar and counting the number of colonies, the amount of biofilm formed can be determined by a semiquantitive microtiter plate method. For example, adherent cells can be dislodged from test catheters as described above. The aliquots of solutions containing the cells from each catheter piece can then be added separately to wells of a 96-well tissue culture plate and incubated at 37° C. for 24 h. After several (e.g., three) washes with PBS, any remaining biofilm is stained with safranin O dye for 1 min and washed with PBS again. Optical density at 492 nm is determined with a 96-well plate spectrometer reader. For each time point, an aliquot without biocide is a positive control. Percent inhibition of biofilm accumulation can be determined from the formula (A492positive−A492biocide)/(A492positive−A492)×100%, Such plating methods are well known to one skilled in the art and could be modified as desired for analysis of the biofilm.
# (§3) For determination of the bacterial resistance of the biofilm formed on the catheter, the method described above was repeated using the same conditions except that the inoculated fluid continuously flowed through the catheter for two hours before fluid flow was discontinued to form a biofilm on the catheter.
# The experiment was repeated as described above, except that Stenotrophomonas maltophilia (1×10^9 CFU/ml) was used to inoculate the serum.
# [2] = system: Enterococcus faecalis; details: serum, 5 to 60 minutes
# [3] = system: Staphylococcus epidermis; details: 5 to 60 minutes
# From the text: as §1, §2, §3
# The experiment was repeated as described above, except that Staphylococcus epidermis (1×10^9 CFU/ml) was used to inoculate the serum.
# [4] = system: Burkholderia cepacia; details: 5 to 60 minutes
# From the text: as §1, §2, §3
# The experiment was repeated as described above, except that Burkholderia cepacia (1×10^9 CFU/ml) was used to inoculate the serum.
# [5] = system: Pseudomonas aeruginosa; details: 5 to 60 minutes
# From the text: as §1, §2, §3
# The experiment was repeated as described above, except that Pseudomonas aeruginosa (1×10^9 CFU/ml) was used to inoculate the serum.
# [6] = system: Escherichia coli; details: biofilm on vascular catheter, over all time periods (5 to 60 minutes), FIG. 12B
# [7] = system: Acinetobacter baumanii; details: biofilm on vascular catheter, 5 to 60 minutes, FIG. 10B
# From the text: as §1
# Initially, only the first fluid source, serum inoculated with Acinetobacter baumanii (10×10^9 CFU/ml), was used to contaminate the catheter with planktonic cells. The inoculated fluid continuously flowed through IV tubing directly through the catheter for […] to form a layer of planktonic cells on the catheter. […] The segments were transferred to test tubes containing one ml saline and the adherent cells were dislodged by sonication in an aquasonic device, vortexed for about one minute, and then counted on Tropic soya Agar. The number of viable cells were determined for each catheter and were compared to the number of viable cells in control samples (i.e., biocide-free serum) to calculate the biocide concentration required to kill 50% of the bacteria in the biofilm at the same time interval. […] In addition to plating cells on agar and counting the number of colonies, the amount of biofilm formed can be determined by a semiquantitive microtiter plate method. […]
# [8] = system: methicillin resistant Staphylococcus aureus (MRSA); details: biofilm on vascular catheter, 5 to 60 minutes, FIG. 14B
smiles,measurement,setting,value
"CC(=O)OO [PAA, peracetic acid]",biofilm kill (biocide concentration required to kill 50% of bacteria that grew in the biofilm),"[1]; biofilm on vascular catheter, FIG. 17B",most effective
same,planktonic cell kill (biocide concentration required to kill 100% of bacteria present as planktonic cells),"[1]; planktonic cells on vascular catheter, FIG. 17A",GLT was somewhat more effective in killing planktonic cells as compared to SHC or PAA
same,biofilm kill (biocide concentration required to kill 50% of bacteria that grew in the biofilm),"[2]; biofilm on vascular catheter, FIG. 13B",most effective
same,planktonic cell kill (biocide concentration required to kill 100% of bacteria present as planktonic cells),"[2]; planktonic cells on vascular catheter, FIG. 13A",most effective
same,biofilm kill (biocide concentration required to kill 50% of bacteria that grew in the biofilm),"[3]; biofilm on vascular catheter, FIG. 15B",most effective
same,planktonic cell kill (biocide concentration required to kill 100% of bacteria present as planktonic cells),"[3]; planktonic cells on vascular catheter, FIG. 15A",performed similarly in planktonic cell kill and outperformed hydrogen peroxide
same,biofilm kill (biocide concentration required to kill 50% of bacteria that grew in the biofilm),"[4]; biofilm on vascular catheter, FIG. 11B",most effective
same,planktonic cell kill (biocide concentration required to kill 100% of bacteria present as planktonic cells),"[4]; planktonic cells on vascular catheter, FIG. 11A",performed comparably and were more effective than hydrogen peroxide
same,biofilm kill (biocide concentration required to kill 50% of bacteria that grew in the biofilm),"[5]; biofilm on vascular catheter, FIG. 16B",most effective
same,planktonic cell kill (biocide concentration required to kill 100% of bacteria present as planktonic cells),"[5]; planktonic cells on vascular catheter, FIG. 16A",performed comparably and were more effective than hydrogen peroxide and SHC
same,biofilm kill (biocide concentration required to kill 50% of bacteria that grew in the biofilm),[6],most effective
same,biofilm kill (biocide concentration required to kill 50% of bacteria that grew in the biofilm),[7],most effective
same,biofilm kill (biocide concentration required to kill 50% of bacteria that grew in the biofilm),[8],most effective
